From PMC10220285, “Development of an assay pipeline for the discovery of novel small molecule inhibitors of human glutathione peroxidases GPX1 and GPX4” (Redox Biology, 2023)

What was measured:
Assay type in all cases: biochemical
Conditions in all cases: Fig. 9 pan-selenoprotein inhibitors
[1] = molecular target: T1, GPX1 (Homo sapiens, UniProt P07203); test: GR-coupled GPX1 activity assay (NADPH fluorescence, CHP substrate)
T1 construct: made in house; host or cells: E. coli
T1 sequence (P07203 1-203): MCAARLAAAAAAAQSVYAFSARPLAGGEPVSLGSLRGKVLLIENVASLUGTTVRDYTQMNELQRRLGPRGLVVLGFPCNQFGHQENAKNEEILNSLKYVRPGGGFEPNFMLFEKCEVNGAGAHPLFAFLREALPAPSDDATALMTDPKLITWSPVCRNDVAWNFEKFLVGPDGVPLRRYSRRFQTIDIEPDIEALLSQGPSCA
Experimental: (§1) The compound plates were prepared as described previously. Purified recombinant human GPX1, GPX2, GPX4, GR, and TXNRD1 were produced and purified as previously reported [[48], [49], [50]]. As production of GPX2 was not optimized at the onset of screening, only GPX1 and GPX4 underwent library screening, and GPX2 was used as a follow-up.
(§2) Follow-up and orthogonal assays were run in quadruplicate unless otherwise stated. Assay schemes are illustrated in Fig. 1.
(§3) To measure GPX activity, assays were performed in 1536-well format in black medium-binding solid-bottom plates (Greiner). These assay conditions were optimized for high-throughput screening from an assay first described by Paglia and Valentine. GPX activity is measured indirectly by coupling the reaction with GR whereby GPX reduces hydroperoxide by oxidizing two GSH to GSSG and the oxidized glutathione is recycled to its reduced state by GR and NADPH (Fig. 1B). The rate of consumption of NADPH is directly proportional to the activity of GPX and can be measured by the decrease in fluorescence at 340 nm/450 nm.
(§4) First, 3 μL of enzyme in TES assay buffer (50 mM Tris-HCl, 2 mM EDTA (pH 7.5), 150 mM NaCl with enzyme [10 nM GPX1, 200 nM GPX4 ] and BSA [0.01%]) was added to columns 3–48 of 1536-well plates using a BioRAPTR Flying Reagent Dispenser (Let's Go Robotics (LGR), Carlsbad, CA). A no-enzyme control (0.01% BSA in TES assay buffer) was added to columns 1–2. Compounds (25 nL, library and DMSO controls) were added to each well with a pin tool (Kalypsys), and the plates were incubated for 30 min at room temperature before 1 μL of master mix (100 nM GR, 1 mM GSH, 0.5 mM NADPH in TES buffer) was added. 1 μL of cumene hydroperoxide (CHP) ([0.5 mM] in 50% EtOH) was then added within 5 min to initiate the reaction. Fluorescence at 340/450 nm was measured using a ViewLux multimodal detector (PerkinElmer, Waltham, MA) at initial t = 0 and endpoint t = 15 min (GPX1) or t = 20 min (GPX4).
(§5) Follow-up confirmation assays were also run in 96-well format using medium binding clear 96-well SpectraPlate microplates (PerkinElmer) and NADPH absorbance at 340 nm was measured every 30 s for 30 min using an Infinite® M Nano (Tecan).
(§6) Percent activity was determined by first calculating delta RFU (decrease in fluorescence between t = 0 and t = 20/30 min in primary GPX, GR counter-screen, and TXNRD1 assays, or increase in fluorescence between t = 0 and t = 20 min in the Monobromobimane GPX endpoint assay), and normalizing enzyme activity using median delta RFU values for DMSO-treated enzyme control, and DMSO-treated no-enzyme controls.
(§7) Compound inhibitory activity in the qHTS assays was determined by plotting dose-response data for each sample and fitting with a four-parameter logistic fit to assess IC50 values, efficacy (maximal response), and AUC (area under the curve), as previously described. Hits were classified by the quality of the concentration-response curves (CRC). Curve classes −1.1 and −1.2 being the highest-confidence actives with complete CRCs and classes −2.1 and −2.2 being lower-confidence actives with incomplete CRCs.

[2] = molecular target: T2, GPX4 (Homo sapiens, UniProt P36969); test: GR-coupled GPX4 activity assay (NADPH fluorescence, CHP substrate)
T2 construct: made in house; host or cells: E. coli
T2 sequence (P36969 1-170 isoform P36969-2): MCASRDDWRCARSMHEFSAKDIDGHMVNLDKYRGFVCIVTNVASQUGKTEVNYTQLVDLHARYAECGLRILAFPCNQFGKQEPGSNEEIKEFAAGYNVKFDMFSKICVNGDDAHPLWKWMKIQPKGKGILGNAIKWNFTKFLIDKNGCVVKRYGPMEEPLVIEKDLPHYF
Experimental: as §1, §2, §3, §4, §5, §6, §7

[3] = molecular target: T3, human GPX2 (Homo sapiens, UniProt P18283); test: GPX2 activity assay (follow-up isoform specificity)
T3 construct: made in house
T3 sequence (P18283 1-190): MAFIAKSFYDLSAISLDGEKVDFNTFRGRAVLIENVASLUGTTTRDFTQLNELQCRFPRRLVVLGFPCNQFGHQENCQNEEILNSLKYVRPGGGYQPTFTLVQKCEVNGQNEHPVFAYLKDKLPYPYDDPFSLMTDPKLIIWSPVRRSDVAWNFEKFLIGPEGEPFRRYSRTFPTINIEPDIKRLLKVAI
Experimental: as §1, §2
Previous work has shown similarities in the substrate specificities of GPX1 and GPX2, and a more unique substrate profile of GPX4 [8].
The GPX2 isoform of human selenoprotein GPXs is found in epithelial cells and has similar substrate specificity with GPX1, but not as much with GPX4 [8]. Additionally, GPX1 and GPX2 both form homotetramers and share similarities in structural homology, although GPX2 has a much slower turnover rate.

[4] = molecular target: T4, GR (glutathione reductase) (Homo sapiens, UniProt P00390); test: GR counter-assay
T4 construct: made in house
T4 sequence (P00390 44-522): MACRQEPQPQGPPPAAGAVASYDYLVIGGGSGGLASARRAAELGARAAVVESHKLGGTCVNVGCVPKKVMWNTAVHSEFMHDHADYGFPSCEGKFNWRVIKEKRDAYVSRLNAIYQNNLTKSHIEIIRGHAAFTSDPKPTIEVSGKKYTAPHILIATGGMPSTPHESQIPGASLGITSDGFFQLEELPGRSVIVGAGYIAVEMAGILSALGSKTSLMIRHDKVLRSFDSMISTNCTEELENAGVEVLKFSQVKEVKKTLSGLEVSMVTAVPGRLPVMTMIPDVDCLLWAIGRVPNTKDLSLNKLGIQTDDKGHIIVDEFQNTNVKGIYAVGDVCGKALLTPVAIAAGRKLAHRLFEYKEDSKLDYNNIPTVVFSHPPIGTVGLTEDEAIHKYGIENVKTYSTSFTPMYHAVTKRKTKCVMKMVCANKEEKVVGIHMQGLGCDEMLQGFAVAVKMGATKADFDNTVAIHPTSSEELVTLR
Experimental: as §1, §2
To identify false positive compounds that interfere with the primary assay through inhibition of GR, ‘hits’ from the primary screening were run against a GR counter assay to identify this possible off-target inhibition (Fig. 1C). Briefly, 3 μL enzyme mixture (100 nM GR, 0.01% BSA in TES buffer) was dispensed into columns […] of a 1536-well black medium-binding solid-bottom plates. The no-enzyme control (0.01% BSA in TES buffer) was included in column 1 and 2. Compounds and controls (23 nL) were added to each well with a pin tool (Kalypsys), and the plates were incubated for 30 min before 2 μL of substrate mixture (1 mM GSSG 0.4 mM NADPH in TES buffer) was added to each well and absorbance at 340 nm was measured at t = 0 and t = 20 min using a ViewLux Multimodal detector (PerkinElmer).
as §6, §7

[5] = molecular target: T5, human TXNRD1 (Homo sapiens, UniProt Q16881); test: Thioredoxin reductase 1 (TXNRD1) inhibition assay (selenite reduction)
T5 construct: made in house
T5 sequence (Q16881 1-499 isoform Q16881-5): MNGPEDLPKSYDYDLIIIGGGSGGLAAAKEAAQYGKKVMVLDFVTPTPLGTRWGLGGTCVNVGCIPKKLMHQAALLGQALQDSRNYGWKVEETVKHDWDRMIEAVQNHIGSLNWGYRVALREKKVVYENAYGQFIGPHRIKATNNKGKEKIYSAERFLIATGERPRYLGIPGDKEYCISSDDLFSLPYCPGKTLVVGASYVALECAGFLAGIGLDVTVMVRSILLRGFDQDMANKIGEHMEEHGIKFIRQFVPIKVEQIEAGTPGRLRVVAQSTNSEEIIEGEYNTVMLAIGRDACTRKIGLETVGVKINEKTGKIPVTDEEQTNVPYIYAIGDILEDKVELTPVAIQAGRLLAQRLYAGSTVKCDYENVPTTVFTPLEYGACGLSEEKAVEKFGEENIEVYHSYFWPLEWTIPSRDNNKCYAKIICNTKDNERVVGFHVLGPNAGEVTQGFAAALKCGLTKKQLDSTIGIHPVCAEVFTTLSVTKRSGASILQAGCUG
Experimental: as §1, §2
TXNRD1 activity was assessed using a modified 1536-well TXNRD1 inhibition assay, based upon TXNRD1-catalyzed selenite reduction as previously described (Fig. 1D). […] TE buffer was dispensed into column 1 and 2 as a no-enzyme control. Finally, 1 μL of sodium selenite in TE buffer was dispensed into each well for final concentrations of 90 nM hTXNRD1, 0.4 mM NADPH, and 0.4 mM sodium selenite. The plate was read in a Viewlux multimodal detector in kinetic mode and fluorescence at 340 nm/450 nm was measured every minute for 8 min.
as §6, §7

Row | Structure (SMILES) | inhibition of GPX1 [1] | inhibition of GPX4 [2] | inhibition of GPX2 [3] | inhibition of GR [4] | inhibition of TXNRD1 [5]
1 | CO[C@@]1(NC(=O)C2SC(=C(C(N)=O)C(=O)O)S2)C(=O)N2C(C(=O)O)=C(CSc3nnnn3C)CS[C@@H]21 (stereo partly drawn) [cefotetan sodium] | inhibited all tested selenoproteins | inhibited all tested selenoproteins | inhibited all tested selenoproteins | not GR | inhibited all tested selenoproteins
2 | CC(OC(=O)OC1CCCCC1)OC(=O)C1=C(CSc2nnnn2CCN(C)C)CS[C@@H]2[C@H](NC(=O)Cc3csc(N)n3)C(=O)N12 (stereo partly drawn) [SCE-2174] | inhibited all tested selenoproteins | inhibited all tested selenoproteins | inhibited all tested selenoproteins | not GR | inhibited all tested selenoproteins
3 | Cc1ccc(NC(=O)N2CCN(c3nc(N)nc4sc(-c5cccnc5)nc34)CC2)cc1 [PI4KIII beta inhibitor 3] | inhibited all tested selenoproteins | inhibited all tested selenoproteins | inhibited all tested selenoproteins | not GR | inhibited all tested selenoproteins
